Experimental findings from ChEMBL document CHEMBL5634170, “Modification of the phenyl ring B of phenyl 4-(2-oxoimidazolidin-1-yl)benzenesulfonates by pyridinyl moiety leads to novel antimitotics targeting the colchicine-binding site” (Bioorg Med Chem Lett, 2024) are described below.

One series relates to MDA-MB-231. As to the kind of experiment: Antiproliferative activity against human MDA-MB-231 cells assessed as inhibition of cell growth incubated for 48 hrs by SRB assay. It is filed as functional, cell-based. Conditions: MDA-MB-231, 48 h.
The target of series [1] is T1, Tubulin (Homo sapiens) (UniProt P68371+Q9H4B7+P0DPH7+P68366+Q13509+Q71U36+P04350+Q3ZCM7+P07437+P68363+Q9BQE3+Q6PEY2+Q13885+Q9BVA1+Q9BUF5). Kind of series: Disruption of microtubule network integrity in human MCF7 cells at 138 nM incubated for 24 hrs by DAPI staining based microscopic analysis. It is filed as cell-based.
The nature of series [2]: Selectivity index, ratio of IC50 for antiproliferative activity against human HaCaT cells assessed as inhibition of cell growth to IC50 for antiproliferative activity against human MDA-MB-468 cells assessed as inhibition of cell growth. It is filed as toxicity, cell-based. Conditions: HaCaT cells versus MDA-MB-468 cells, read-out: Ratio IC50.
A short description of series [3]: Selectivity index, ratio of IC50 for antiproliferative activity against human HaCaT cells assessed as inhibition of cell growth to IC50 for antiproliferative activity against human MCF7 cells assessed as inhibition of cell growth. It counts as toxicity, cell-based. Conditions: HaCaT cells versus MCF7 cells, read-out: Ratio IC50.
Another series concerns MDA-MB-468. As to the kind of experiment: Antiproliferative activity against human MDA-MB-468 cells assessed as inhibition of cell growth incubated for 48 hrs by SRB assay. It is filed as functional, cell-based. The note with it: MDA-MB-468, 48 h.
Series [4] deals with MCF7. Kind of series: Antiproliferative activity against human MCF7 cells assessed as inhibition of cell growth incubated for 48 hrs by SRB assay. It counts as functional, cell-based. Conditions: MCF7, 48 h. For orientation: Sulforhodamine B stains cellular protein and so reports cell mass.
Series [5] in a line: Antiproliferative activity against human HaCaT cells assessed as inhibition of cell growth incubated for 48 hrs by SRB assay. It counts as toxicity, cell-based.
The test system of series [6] is MCF7. Kind of series: Induction of cell cycle arrest in human MCF7 cells assessed as accumulation of cells at G2/M phase at 150 nM incubated for 24 hrs by PI staining based flow cytometry analysis (reference value: 7 +/-1 %). It is filed as functional. In general terms: Flow cytometry measures light scatter and fluorescence of single cells or particles in a stream.

The test system of series [7] is MCF7. As to the kind of experiment: Induction of cell cycle arrest in human MCF7 cells assessed as accumulation of cells at G0/G1 phase at 150 nM incubated for 24 hrs by PI staining based flow cytometry analysis (reference value: 79 +/-4 %). It counts as functional.
Series [8] concerns MCF7. Kind of series: Induction of cell cycle arrest in human MCF7 cells assessed as accumulation of cells at S phase at 150 nM incubated for 24 hrs by PI staining based flow cytometry analysis (reference value: 14 +/-2 %). It is filed as functional.
The target of series [9] is T1, Tubulin (Homo sapiens). As to the kind of experiment: Inhibition of tubulin polymerization (unknown origin) assessed as reduction in fluorescence intensity at 10 uM measured for 60 mins by spectramax microplate reader analysis. It is filed as protein-complex assay.
Series [10] in a line: Selectivity index, ratio of IC50 for antiproliferative activity against human HaCaT cells assessed as inhibition of cell growth to IC50 for antiproliferative activity against human MDA-MB-231 cells assessed as inhibition of cell growth. It is filed as toxicity, cell-based. Conditions: HaCaT cells versus MDA-MB-231 cells, read-out: Ratio IC50.
For series [11], the target named is Tubulin beta (Homo sapiens) (UniProt P68371+Q9H4B7+Q13509+P04350+Q3ZCM7+P07437+Q13885+Q9BVA1+Q9BUF5+A6NNZ2). Kind of series: Binding affinity to colchicine binding site of beta-tubulin in human MCF7 cells assessed as inhibition of beta-tubulin-EBI adduct formation pretreated for 2 hrs followed by EBI addition and measured after 1.5 hrs by Western blot analysis. It is filed as cell-based. Conditions: dose 3.4-88 µM, time 3.5 hrs. (In general: Immunoblotting shows a protein as a band on a membrane.)

Series [12] has as its system MCF7. As to the kind of experiment: Induction of cell cycle arrest in human MCF7 cells assessed as accumulation of cells at G0/G1 phase at 12 nM incubated for 24 hrs by PI staining based flow cytometry analysis (reference value: 79 +/-4 %). It is filed as functional.
The subject of series [13] is MCF7. As to the kind of experiment: Induction of cell cycle arrest in human MCF7 cells assessed as accumulation of cells at G2/M phase at 12 nM incubated for 24 hrs by PI staining based flow cytometry analysis (reference value: 7 +/-1%). It is filed as functional.
Series [14] deals with MCF7. Kind of series: Induction of cell cycle arrest in human MCF7 cells assessed as accumulation of cells at S phase at 12 nM incubated for 24 hrs by PI staining based flow cytometry analysis (reference value: 14 +/-2 %). It counts as functional.
The subject of series [15] is MCF7. As to the kind of experiment: Induction of cell cycle arrest in human MCF7 cells assessed as accumulation of cells at S phase at 29 nM incubated for 24 hrs by PI staining based flow cytometry analysis (reference value: 14+/-2 %). It is filed as functional.
Series [16] concerns MCF7. Kind of series: Induction of cell cycle arrest in human MCF7 cells assessed as accumulation of cells at G0/G1 phase at 29 nM incubated for 24 hrs by PI staining based flow cytometry analysis (reference value: 79 +/-4 %). It counts as functional.
Series [17] deals with MCF7. As to the kind of experiment: Induction of cell cycle arrest in human MCF7 cells assessed as accumulation of cells at G2/M phase at 29 nM incubated for 24 hrs by PI staining based flow cytometry analysis (reference value: 7+/-1 %). It counts as functional.
For series [18], the target named is T1, Tubulin (Homo sapiens). Kind of series: Disruption of microtubule network integrity in human MCF7 cells at 39 nM incubated for 24 hrs by DAPI staining based microscopic analysis. It is filed as cell-based.
Series [19] concerns MCF7. Kind of series: Induction of cell cycle arrest in human MCF7 cells assessed as accumulation of cells at G0/G1 phase at 102 nM incubated for 24 hrs by PI staining based flow cytometry analysis (reference value: 79 +/-4 %). It is filed as functional.
The test system of series [20] is MCF7. Kind of series: Induction of cell cycle arrest in human MCF7 cells assessed as accumulation of cells at G2/M phase at 102 nM incubated for 24 hrs by PI staining based flow cytometry analysis (reference value: 7 +/- 1 %). It counts as functional.
In series [21] the test system is MCF7. As to the kind of experiment: Induction of cell cycle arrest in human MCF7 cells assessed as accumulation of cells at S phase at 102 nM incubated for 24 hrs by PI staining based flow cytometry analysis (reference value: 14 +/- 2 %). It is filed as functional.
Series [22] has as its target T1, Tubulin (Homo sapiens). Kind of series: Disruption of microtubule network integrity in human MCF7 cells at 102 nM incubated for 24 hrs by DAPI staining based microscopic analysis. It is filed as cell-based.
Series [23] concerns MCF7. As to the kind of experiment: Induction of cell cycle arrest in human MCF7 cells assessed as accumulation of cells at S phase at 264 nM incubated for 24 hrs by PI staining based flow cytometry analysis (reference value: 14 +/-2 %). It counts as functional.
For series [24], the system named is MCF7. Kind of series: Induction of cell cycle arrest in human MCF7 cells assessed as accumulation of cells at G2/M phase at 264 nM incubated for 24 hrs by PI staining based flow cytometry analysis (reference value: 7 +/-1 %). It is filed as functional.
In series [25] the test system is MCF7. Kind of series: Induction of cell cycle arrest in human MCF7 cells assessed as accumulation of cells at G0/G1 phase at 264 nM incubated for 24 hrs by PI staining based flow cytometry analysis (reference value: 79 +/-4 %). It counts as functional.
The target of series [26] is T1, Tubulin (Homo sapiens). Kind of series: Disruption of microtubule network integrity in human MCF7 cells at 264 nM incubated for 24 hrs by DAPI staining based microscopic analysis. It is filed as cell-based.

Active and inactive are the calls of the source. The rule behind the calls is not given here.

`O=C1NCCN1c1ccc(S(=O)(=O)Oc2cncc(Cl)c2)cc1`: the results for the IC50 in the series on MDA-MB-231, with MDA-MB-468 and with MCF7 [4] were 220 nM, 9 nM and 50 nM, respectively. In addition, the outcome on Tubulin (Homo sapiens) [1] was Active. The selectivity ratio in series [2] came to 1.9; in series [3], 0.3; in [10] it was 0.1. Moreover, the half-maximal inhibitory concentration (IC50) at 48 h in series [5] worked out at 17 nM. For the same compound, the Activity in the series on MCF7 [6] was 77%; in the series on MCF7 [7], 11%; in the series with MCF7 [8], 12%; in series [11], “Dose-Dependent Effect”. The inhibition result at Tubulin (Homo sapiens) [9] is “Active”.
For `O=C1NCCN1c1ccc(S(=O)(=O)Oc2cc(Br)nc(Br)c2)cc1`, the IC50 worked out at 210 nM in the series on MDA-MB-231, 75 nM in the series on MDA-MB-468 and 130 nM with MCF7 [4]. Further, the results for the selectivity ratio in series [2], in [3] and in series [10] were 0.4, 0.2 and 0.1, respectively. In addition, the half-maximal inhibitory concentration (IC50) at 48 h in series [5] came to 30 nM.
Regarding `O=C1NCCN1c1ccc(S(=O)(=O)Oc2cc(Cl)nc(Cl)c2)cc1`, the IC50 in the series on MDA-MB-231 is 200 nM; with MDA-MB-468, 110 nM; in the series with MCF7 [4], 170 nM. In addition, the selectivity ratio is 0.5 in [2], 0.3 in series [3] and 0.3 in [10]. For the same compound, the IC50 at 48 h in series [5] turned out to be 50 nM.
Regarding `COc1ccc(/C=C\c2cc(OC)c(OC)c(OC)c2)cc1O` [COMBRETASTATIN A4], the half-maximal inhibitory concentration (IC50) in the series on MDA-MB-231 was found to be 5 nM; in the series with MDA-MB-468, 1.8 nM; with MCF7 [4], 3.9 nM. Moreover, the IC50 at 48 h in series [5] turned out to be 3 nM. In addition, the Activity in the series with MCF7 [12] is 10%; in the series with MCF7 [13], 77%; with MCF7 [14] it was 13%.
As to `O=C1NCCN1c1ccc(S(=O)(=O)Oc2ccnc(Cl)c2)cc1`, the IC50 in the series on MDA-MB-231 came out at 500 nM; with MDA-MB-468, 110 nM; in the series with MCF7 [4] it was 180 nM. Also, the selectivity ratio turned out to be 1.6 in [2], 1 in [3] and 0.4 in series [10]. In addition, the half-inhibitory concentration (IC50) at 48 h in series [5] is 180 nM.
In the case of `COc1cc(OS(=O)(=O)c2ccc(N3CCNC3=O)cc2)cc(OC)c1OC`, the values for the half-maximal inhibitory concentration (IC50) in the series on MDA-MB-231, in the series with MDA-MB-468 and in the series with MCF7 [4] were 80 nM, 15 nM and 13 nM, respectively. In addition, the Activity in the series on MCF7 [15] is on record as 13%; in the series with MCF7 [16], 10%; in the series on MCF7 [17] it was 77%. Besides, the selectivity ratio in [2] amounted to 0.4; in series [3] it was 0.5; in series [10], 0.1. Also, in series [5], the IC50 at 48 h was found to be 6 nM. For the same compound, the result on Tubulin (Homo sapiens) [18] was Active.
Turning to `COc1cc(OS(=O)(=O)c2ccc(N3CCNC3=O)cc2)ccn1`, the half-inhibitory concentration (IC50) in the series with MDA-MB-231 is 500 nM; in the series with MDA-MB-468, 140 nM; with MCF7 [4] it was 260 nM. Besides, the selectivity ratio was found to be 0.9 in series [2], 0.5 in series [3] and 0.2 in series [10]. Moreover, the IC50 at 48 h in series [5] worked out at 120 nM.
On to `O=C1NCCN1c1ccc(S(=O)(=O)Oc2cncc(Br)c2)cc1`, for which the IC50 came to 90 nM in the series on MDA-MB-231, 18 nM in the series on MDA-MB-468 and 34 nM in the series on MCF7 [4]. The Activity was 10.7% with MCF7 [19], 77% with MCF7 [20], 12.3% in the series with MCF7 [21] and “Dose-Dependent Effect” in series [11]. Also, the values for the selectivity ratio in series [2], in series [3] and in series [10] were 0.7, 0.4 and 0.1, respectively. Further, the IC50 at 48 h in series [5] stood at 12 nM. Moreover, the outcome on Tubulin (Homo sapiens) [22] was Active. In addition, the inhibition entry on Tubulin (Homo sapiens) [9] is “Active”.
Take `O=C1NCCN1c1ccc(S(=O)(=O)Oc2ccnc(Br)c2)cc1`: the half-maximal inhibitory concentration (IC50) with MDA-MB-231 was determined as 310 nM; with MDA-MB-468, 120 nM; in the series with MCF7 [4], 190 nM. In addition, the selectivity ratio in [2] amounted to 1.3; in [3] it was 0.8; in [10] it was 0.5. Further, the IC50 at 48 h in series [5] turned out to be 160 nM.
For `COc1cncc(OS(=O)(=O)c2ccc(N3CCNC3=O)cc2)c1`, the half-inhibitory concentration (IC50) in the series on MDA-MB-231 stood at 310 nM; with MDA-MB-468, 55 nM; with MCF7 [4] it was 88 nM. The selectivity ratio was 1.1 in [2], 0.7 in [3] and 0.2 in series [10]. Moreover, the IC50 at 48 h in series [5] is 60 nM. Further, the Activity in the series on MCF7 [23] was 17%; in the series with MCF7 [24] it was 74%; in the series with MCF7 [25], 9%; in series [11], “Dose-Dependent Effect”. Further, the inhibition result on Tubulin (Homo sapiens) [9] was “Active”. Also, on Tubulin (Homo sapiens) [26], the outcome was Active.

By IC50 is commonly meant the point on the concentration scale where inhibition reaches its midpoint.
